Measurements as given in ChEMBL document CHEMBL1201862, “PubChem BioAssay data set” (2004).
Where a name gives a salt, the structure may show the parent alone.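 Five concentrations, 48 hours, 96-well plates. At the GI50, growth is halved.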 Active and inactive are the calls of the source. Rule as the data show it: active = GI50 up to about 1.1 µM and inactive = higher.

Assays:
Experiment in all cases: growth of human tumour cells (NCI), 48 h
[1] = system: SK-OV-3
[2] = system: SNB-75
[3] = system: OVCAR-5
[4] = system: UACC-257
[5] = system: M14
[6] = system: UACC-62
[7] = system: HL-60
[8] = system: COLO 205
[9] = system: A549
[10] = system: RXF 393
[11] = system: ACHN
[12] = system: KM-20L2
[13] = system: Malme-3M
[14] = system: NCI-H522
[15] = system: HCT-15
[16] = system: HCT-116
[17] = system: RPMI-8226
[18] = system: MDA-MB-435
[19] = system: PC-3
[20] = system: BT-549

Compound | GI50 [1] | GI50 [2] | GI50 [3] | GI50 [4] | GI50 [5] | GI50 [6] | GI50 [7] | GI50 [8] | GI50 [9] | GI50 [10] | GI50 [11] | GI50 [12] | GI50 [13] | GI50 [14] | GI50 [15] [µM] | GI50 [16] | GI50 [17] | GI50 [18] | GI50 [19] | GI50 [20]
O=c1[nH]c(C2CCCCC2)nc2c(Cl)cccc12 | > 100 µM (inactive) | > 100 µM (inactive) | > 100 µM (inactive) | > 100 µM (inactive) | > 100 µM (inactive) | > 100 µM (inactive) | > 100 µM (inactive) | > 100 µM (inactive) | > 100 µM (inactive) | > 100 µM (inactive) | > 100 µM (inactive) | > 100 µM (inactive) | > 100 µM (inactive) | > 100 µM (inactive) | > 100 | > 100 µM (inactive) | – | – | – | –
O=C(Nc1ccccc1[N+](=O)[O-])/C(=N/Nc1cccc(Cl)c1)c1c(O)c2ccccc2oc1=O | > 100 µM (inactive) | > 100 µM (inactive) | > 100 µM (inactive) | 41.2 µM (inactive) | > 100 µM (inactive) | 42.2 µM (inactive) | > 10 µM (inactive) | 17.7 µM (inactive) | > 100 µM (inactive) | > 100 µM (inactive) | > 100 µM (inactive) | > 100 µM (inactive) | 97.9 µM (inactive) | 30.5 µM (inactive) | 58.1 | 22.9 µM (inactive) | – | – | – | –
O=C1CSc2ccncc2N1 | – | > 100 µM (inactive) | > 100 µM (inactive) | > 100 µM (inactive) | > 100 µM (inactive) | > 100 µM (inactive) | > 100 µM (inactive) | > 100 µM (inactive) | > 100 µM (inactive) | > 100 µM (inactive) | > 100 µM (inactive) | > 100 µM (inactive) | > 100 µM (inactive) | – | > 100 | > 100 µM (inactive) | – | – | – | –
COc1nc(NC2OC(COC(C)=O)C(OC(C)=O)C(OC(C)=O)C2OC(C)=O)c2c(OC(C)=O)c(C)c(=O)oc2n1 (configuration not stated) | > 100 µM (inactive) | > 100 µM (inactive) | > 100 µM (inactive) | > 100 µM (inactive) | > 100 µM (inactive) | > 100 µM (inactive) | > 100 µM (inactive) | > 100 µM (inactive) | > 100 µM (inactive) | > 100 µM (inactive) | 1.7 µM (inactive) | > 100 µM (inactive) | > 100 µM (inactive) | – | > 100 | > 100 µM (inactive) | > 100 µM (inactive) | – | – | –
OCC(CO)C1c2cccc3ccc4cccc1c4c23 | > 100 µM (inactive) | 54.1 µM (inactive) | > 100 µM (inactive) | > 100 µM (inactive) | > 100 µM (inactive) | > 100 µM (inactive) | > 100 µM (inactive) | > 100 µM (inactive) | > 100 µM (inactive) | > 100 µM (inactive) | > 100 µM (inactive) | > 100 µM (inactive) | > 100 µM (inactive) | – | – | > 100 µM (inactive) | > 100 µM (inactive) | – | – | –
Cn1c(=O)c2[nH]cnc2n(CC(=O)O)c1=O | > 100 µM (inactive) | > 100 µM (inactive) | > 100 µM (inactive) | – | > 100 µM (inactive) | > 100 µM (inactive) | – | > 100 µM (inactive) | > 100 µM (inactive) | – | > 100 µM (inactive) | > 100 µM (inactive) | > 100 µM (inactive) | > 100 µM (inactive) | > 100 | > 100 µM (inactive) | > 100 µM (inactive) | – | – | –
CC(C)(C)c1cc(C(O)(C(F)(F)F)C(F)(F)F)c2c(c1)C(C(F)(F)F)(C(F)(F)F)OC(C(C)(C)C)N2 (configuration not stated) | 1.43 µM (inactive) | 2.56 µM (inactive) | 10.9 µM (inactive) | 2.81 µM (inactive) | 5.13 µM (inactive) | 3.56 µM (inactive) | – | 3.3 µM (inactive) | 3.28 µM (inactive) | 0.382 µM (active) | 2.72 µM (inactive) | 2.86 µM (inactive) | 5.31 µM (inactive) | 2.75 µM (inactive) | 2.99 | 1.96 µM (inactive) | 1.95 µM (inactive) | – | – | –
CCOC(=O)c1sc2c(C(=O)OCC)n3cc(C)cc(C)c3c2c1O | > 100 µM (inactive) | 58.7 µM (inactive) | > 100 µM (inactive) | – | > 100 µM (inactive) | > 100 µM (inactive) | – | > 100 µM (inactive) | > 100 µM (inactive) | > 100 µM (inactive) | > 100 µM (inactive) | > 100 µM (inactive) | > 100 µM (inactive) | 80.4 µM (inactive) | – | > 100 µM (inactive) | – | – | – | –
CCCC(=O)Nc1cc(C(=O)N2C[C@@H]3C[C@]34C2=CC(=O)c2[nH]cc(C)c24)n(COC)c1 | 16.3 µM (inactive) | 7.36 µM (inactive) | 34.4 µM (inactive) | 9.79 µM (inactive) | 12.4 µM (inactive) | 5.86 µM (inactive) | 1.79 µM (inactive) | 5.93 µM (inactive) | 9.75 µM (inactive) | 1.84 µM (inactive) | 5.93 µM (inactive) | – | 2.59 µM (inactive) | 0.977 µM (active) | 15.9 | 7.87 µM (inactive) | 12.2 µM (inactive) | 9.06 µM (inactive) | 7.33 µM (inactive) | 8.43 µM (inactive)
CCOC(=O)C12CCCC1(O)N(NC(=O)c1ccccc1)C(C)=C2C(=O)OC (configuration not stated) | > 100 µM (inactive) | – | > 100 µM (inactive) | > 100 µM (inactive) | > 100 µM (inactive) | > 100 µM (inactive) | > 100 µM (inactive) | > 100 µM (inactive) | > 100 µM (inactive) | – | > 100 µM (inactive) | > 100 µM (inactive) | > 100 µM (inactive) | > 100 µM (inactive) | > 100 | > 100 µM (inactive) | > 100 µM (inactive) | – | – | –
CCCNC(=S)NNC(=O)CSc1nc(-c2ccccc2)c(-c2ccccc2)[nH]1 | > 100 µM (inactive) | 49.1 µM (inactive) | > 100 µM (inactive) | 45.6 µM (inactive) | 24.1 µM (inactive) | > 100 µM (inactive) | 23.2 µM (inactive) | 39 µM (inactive) | 75.5 µM (inactive) | – | 46.7 µM (inactive) | 84.1 µM (inactive) | 22.1 µM (inactive) | 26.7 µM (inactive) | 49.3 | 94.4 µM (inactive) | 28.4 µM (inactive) | – | – | –
CC/C(=N\NS(=O)(=O)c1ccccc1)c1ccccc1 | > 100 µM (inactive) | > 100 µM (inactive) | > 100 µM (inactive) | > 100 µM (inactive) | > 100 µM (inactive) | > 100 µM (inactive) | > 100 µM (inactive) | > 100 µM (inactive) | > 100 µM (inactive) | > 100 µM (inactive) | > 100 µM (inactive) | > 100 µM (inactive) | > 100 µM (inactive) | – | > 100 | > 100 µM (inactive) | > 100 µM (inactive) | – | – | –
COc1ccc2c(c1)C(O)(C(F)(F)F)c1cc(C(=O)C(F)(F)F)c3ccccc3c1N2 (configuration not stated) | 17.8 µM (inactive) | 16.9 µM (inactive) | 14.4 µM (inactive) | 13.5 µM (inactive) | 5.33 µM (inactive) | 4.46 µM (inactive) | 14.7 µM (inactive) | 6.75 µM (inactive) | 11.6 µM (inactive) | 11.5 µM (inactive) | 5.47 µM (inactive) | 3.71 µM (inactive) | – | 7.74 µM (inactive) | 7.35 | – | – | – | – | –
Cc1cc(C)nc(NS(=O)(=O)c2ccc(NC(=O)c3ccc(Cl)c4c(Nc5ccc(S(=O)(=O)Nc6nc(C)cc(C)n6)cc5)c5ccccc5nc34)cc2)n1 | 13.7 µM (inactive) | 21.3 µM (inactive) | 15.7 µM (inactive) | 27.7 µM (inactive) | 2.64 µM (inactive) | 2.04 µM (inactive) | 3.15 µM (inactive) | 15.9 µM (inactive) | 22.8 µM (inactive) | 2.16 µM (inactive) | 26.9 µM (inactive) | 6.43 µM (inactive) | 14.4 µM (inactive) | – | 26.9 | 1.82 µM (inactive) | 3.72 µM (inactive) | – | – | –
COc1cc2[nH]c3c(c2cc1OC)CCN[C@]31CC[C@]2(CC3c4c(cc(OC)c(O)c42)CCN3C)C[C@H]1OC (some centres not stated) | 25.8 µM (inactive) | 21.5 µM (inactive) | 69.3 µM (inactive) | 19.9 µM (inactive) | 15.7 µM (inactive) | 25 µM (inactive) | 11.6 µM (inactive) | 13.7 µM (inactive) | 25.1 µM (inactive) | 3.04 µM (inactive) | 24.8 µM (inactive) | 28.1 µM (inactive) | 21 µM (inactive) | – | 18.8 | 15.6 µM (inactive) | 15.2 µM (inactive) | – | – | –
COc1cc2c(cc1C)NC(=O)/C2=C/c1c(Cl)[nH]c2ccccc12 | 1.47 µM (inactive) | 7.87 µM (inactive) | 7.87 µM (inactive) | 10.7 µM (inactive) | 3.21 µM (inactive) | 3.57 µM (inactive) | 2.39 µM (inactive) | 2.92 µM (inactive) | 6.05 µM (inactive) | 8.07 µM (inactive) | 10.6 µM (inactive) | – | 3.88 µM (inactive) | 6.75 µM (inactive) | 3.38 | 4.89 µM (inactive) | 4.6 µM (inactive) | 1.62 µM (inactive) | 5.21 µM (inactive) | 2.74 µM (inactive)
COC(=O)C1=CO[C@@H](C)[C@@H]2Cn3ccc4c5ccccc5nc-4c3C[C@H]12 [ALSTONINE HYDROCHLORIDE] | > 100 µM (inactive) | > 100 µM (inactive) | > 100 µM (inactive) | > 100 µM (inactive) | > 100 µM (inactive) | > 100 µM (inactive) | – | > 100 µM (inactive) | > 100 µM (inactive) | > 100 µM (inactive) | > 100 µM (inactive) | > 100 µM (inactive) | > 100 µM (inactive) | 51.6 µM (inactive) | > 100 | > 100 µM (inactive) | 84.3 µM (inactive) | – | – | –
